The data set is described as follows: gradient 5% acetonitrile 3 min, to 50% in 2 min, to 85% in 15 min, held 3 min, 100 µL/min. Conditions: column: Zorbax Extend-C18 2.1 x 50 mm; eluents: water / acetonitrile, 0.1% formic acid. The essentials:
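Pure standards were analyzed in mixtures of ~100 molecules using HPLC coupled to a quadrupole time-of-flight mass spectrometer, in both positive and negative ionization mode. Separation used a Zorbax Extend-C18 column (2.1 × 50 mm, 1.8 μm) at 100 μL/min, with water and acetonitrile each containing 0.1% formic acid. Dead and dwell volumes were 40 μL and 900 μL, and data were collected over 3 months. Retention time was read from computationally picked adduct peaks, each inspected manually.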
With `COc1cc(OC)c(NC(=O)Nc2c(-c3ccc(F)cc3)nc3ccccn23)cc1Cl`, the RP-LC retention time worked out at 708 s. The figure for `O=C(NC(=O)c1ccccc1)OCCN1CCN(c2ncc(C(F)(F)F)cc2Cl)CC1` is 692 s; for `O=C(CC1CCCC1)Nc1ccc2c(c1)CCC(=O)N2` it is 684 s. The result for `COCCCNC(=O)c1ccc2c(c1)nc1n2CCN(C2CCCCC2)C1=O` reads 1240 s; that for `COc1ccc(OCC(=O)N2CCN(c3cc(C(C)C)n4cnnc4n3)CC2)cc1`, 619 s; that for `CC(=O)N1c2ccc(S(=O)(=O)N3CCCCCC3)cc2CC1C(=O)NCc1ccc(F)cc1` (stereo not given), 890 s. The result for `Cc1cc(-c2nnc(-c3ccco3)o2)c(C)n1CC(=O)Nc1cc(F)cc(F)c1` reads 929 s; that for `COc1ccccc1NC(=O)N1CCC2(CC1)N=C(c1ccc(Cl)cc1)C(=O)N2`, 884 s. `Cc1ccc2nc3c(c(C(=O)NC(C)C)c2c1)CCC3` registered an RP-LC retention time of 610 s. The result for `O=C(c1cccs1)N1CC(Oc2ccc(-c3nc(-c4ccccc4)no3)cc2)C1` reads 1170 s; that for `CCOc1ccc2nc(C(=O)NC(CC)c3ccc(OC)cc3)cn2n1` (stereo not given), 897 s; that for `CCNC(=O)c1cnn(-c2cc(-c3nc(C(C)C)no3)ccn2)c1C`, 858 s.

On to `COc1ccc(S(=O)(=O)N2[C@H]3CC[C@@H]2c2cncnc2C3)cc1`, for which the RP-LC retention time is 715 s. The figure for `CCn1cc(S(=O)(=O)Nc2ccc3nc(S(=O)(=O)CC)sc3c2)cn1` is 693 s. The figure for `CCC[C@@H](NC(=O)N1C(=O)C(CC)(CC)[C@@H]1Oc1ccc(C(=O)N2CCN(C)CC2)cc1)c1ccc2c(c1)OCO2` is 919 s; for `O=C1CCN(C(=O)CC2CCCCC2)CCCOCCN1` it is 646 s; for `O=C(NCC1CCCO1)c1ccc(-c2cnc(Oc3ccccc3)nc2)cc1` (stereo not given) it is 779 s.

The compound `Cc1c(S(=O)(=O)N2CCC(C)CC2)c(C)n(C)c1-c1nnc(C2CCC2)o1` returned an RP-LC retention time of 1100 s. `CCOC(=O)c1cc(S(=O)(=O)N2CCN(c3ccccn3)CC2)[nH]n1` came in with an RP-LC retention time of 598 s. The result for `COCCN1CC(CO)C2(CCN(Cc3ccc(Cl)cc3F)CC2)C1` (stereo not given) reads 538 s. For the compound `CC(=O)Nc1ccc(NC(=O)Cn2ccn3nc(-c4ccc(F)cc4)c(CO)c3c2=O)cc1`, the RP-LC retention time turned out to be 670 s. The result for `CCN1CCN(c2nc3c(c(Nc4ccccc4)n2)C(=O)CCC3)CC1` reads 1040 s; that for `CC(C)c1ccc(S(=O)(=O)c2cnc(N3CCC(C(N)=O)(N4CCCCC4)CC3)nc2N)cc1`, 677 s. The figure for `CCOc1ccc(Br)cc1S(=O)(=O)N1CCN(c2nc(C)cc(N(C)C)n2)CC1` is 765 s; for `COc1cc(N)c(Cl)cc1C(=O)CCC1CCN(CCNS(C)(=O)=O)CC1` it is 673 s. For `Cc1noc([C@@H]2CN(C(=O)Cc3ccsc3)C[C@H]2C(N)=O)n1`, the RP-LC retention time came out at 618 s.

On to `CCc1nnc(-c2cn(CC(=O)NCCCc3ccccc3)c3ccccc23)o1`, for which the RP-LC retention time was 877 s.

`O=C(O)c1cn(-c2cccc(F)c2)nn1`: the RP-LC retention time amounted to 652 s. `COC(=O)c1cccc(NC(=O)N2C[C@@H]3C[C@H](NC(=O)c4ccccc4)[C@H]2C3)c1` showed an RP-LC retention time of 836 s.

For the compound `COc1ccc(-c2nc3cccc(C)n3c2Nc2ccc(C)cc2)cc1`, the RP-LC retention time was found to be 757 s. As to `CCOc1ccccc1NC(=O)Cn1nc(N2CCSCC2)c2ccccc2c1=O`, the RP-LC retention time worked out at 929 s.

Turning to `Cn1nc(C(=O)N2CCCC(C(=O)Nc3ccccc3)C2)c2c1CCN(C(=O)c1ccc(F)cc1)C2` (stereo not given), the RP-LC retention time worked out at 756 s. The figure for `CCCc1cc(N2CCN(C(=O)COc3ccccc3)CC2)nc2nnc(C)n12` is 634 s. The figure for `CC1Cc2cc(-c3cc(CC(=O)NCc4ccco4)no3)ccc2O1` (stereo not given) is 616 s; for `COc1ccc(C2CCCN2C(=O)c2cccs2)cc1` (stereo not given) it is 888 s. The figure for `O=C(O)c1nnn(-c2cccc(F)c2)c1C(F)(F)F` is 744 s; for `COc1ccc(Cl)cc1NC(=O)N1CCCC(C)(C(=O)NCc2ccc(C)cc2)C1` (stereo not given) it is 982 s. On to `CC(=O)Nc1cc(-c2nc(-c3ccc4oc(C)nc4c3)no2)ccc1C`, for which the RP-LC retention time turned out to be 803 s.

For `Cc1noc(C2CN(C(=O)Nc3ccc(Cl)cc3C)CC23CCOCC3)n1` (stereo not given), the RP-LC retention time is 792 s. The result for `COCCCN1C(=O)CSc2c(c3ccccc3n2C)C1C(=O)NCc1ccccc1OC` (stereo not given) reads 893 s; that for `CCOc1ccccc1N(C)C(=O)Cc1c(C(=O)O)c(C)cn1C`, 773 s; that for `CC(=O)N1CCc2cc(-c3ccc(C(=O)NCCCN4CCCC4=O)cc3)ccc21`, 672 s. For the compound `O=C(CSc1nnc(NC(=O)C2CCCCC2)s1)Nc1nccs1`, the RP-LC retention time stood at 747 s.

Take `COC(=O)c1ccc(NC(=O)NCCn2c(C(F)(F)F)nc3cccnc32)cc1`: the RP-LC retention time was 706 s. The figure for `COc1ccc(-c2cc3n(n2)CCCN(C(=O)c2cccnc2)C3)cc1` is 665 s; for `COc1ccc2c(c1)C1(CCN(C(=O)Cc3ccccc3Cl)C1)C(=O)N2C` (stereo not given) it is 848 s. The result for `CCC(CN1CCOCC1)Nc1nc(-c2ccc(OC)cc2)nc2ccccc12` (stereo not given) reads 570 s. The result for `O=C(NC1CCCCC1)C1CCCN(c2ncnc3c2oc2ccccc23)C1` (stereo not given) reads 758 s; that for `O=C(CN1C(=O)NC2(CCCCC2)C1=O)Nc1ccc(Br)cc1F`, 826 s; that for `CC(C)c1ccc(NC(=O)C2CC(=O)N(c3cccc(NC(=O)C4CCC4)c3)C2)cc1` (stereo not given), 929 s. The compound `CCC(=O)NCCc1csc(C2CCCN(C(=O)C3(c4ccccc4)CC3)C2)n1` (stereo not given) came in with an RP-LC retention time of 736 s. As to `CCCN1C(=O)COc2ccc(-c3noc(-c4cccc(NC(C)=O)c4)n3)cc21`, the RP-LC retention time was 925 s. For `CCCn1cc(S(=O)(=O)Nc2cccc(F)c2)c2cccnc21`, the RP-LC retention time is 883 s. The result for `COC(=O)c1c(C)[nH]c(C(=O)N2CCCC(C(=O)NC3CCCCC3)C2)c1C` (stereo not given) reads 759 s. The result for `Cc1ccc(C)n1-c1nnc(N2CCCC(C(=O)NC3CC3)C2)s1` (stereo not given) reads 780 s; that for `CC(C)CC(=O)NCCc1nc2cccnc2n1-c1ccccc1`, 661 s; that for `O=C(CCC1CCN(c2cc(NC3CC3)ncn2)CC1)NCc1ccccc1F`, 673 s. In turn, `CCCN(C)S(=O)(=O)c1cc(-c2nc(C(C)(C)C)cs2)cs1` gave an RP-LC retention time of 1330 s. `Cc1cc(C)c(NC(=O)Cn2cnc3nc(N4CCCC(C(=O)NC5CC5)C4)sc3c2=O)c(C)c1` (stereo not given): the RP-LC retention time is 723 s.

`CCCN1C(=O)COc2ccc(-c3noc(-c4cc(OC)c(OC)c(OC)c4)n3)cc21` registered an RP-LC retention time of 1140 s. The figure for `NC(=O)Cn1c(Cc2ccccc2)nc2ccccc21` is 522 s. Regarding `COCCNC(=O)CN1c2ccccc2NC2=C(C(=O)CC(C)(C)C2)C1c1ccc(F)cc1` (stereo not given), the RP-LC retention time is 752 s. The result for `Fc1ccc(Cc2nc3nccc(-c4ccccc4)n3n2)cc1` reads 890 s; that for `CCN1CCCn2cc(S(=O)(=O)Nc3cc(F)ccc3C)cc2C1=O`, 729 s; that for `COc1cccc(-c2nc(C3CCN(S(=O)(=O)c4ccc(C(C)C)cc4)CC3)no2)c1`, 1300 s.

Compound `Cc1noc(C)c1CC(=O)N1CCCn2ccnc2C1C1CCCC1` (stereo not given) displayed an RP-LC retention time of 595 s.

Regarding `Cc1ccc2oc(C(=O)N3CCC(CCN4CCCC4)CC3)cc(=O)c2c1`, the RP-LC retention time came out at 603 s. The result for `c1ccc(-c2cccc(-c3ccccn3)n2)nc1` reads 608 s; that for `Cc1ccc(-c2nnc(-c3cccc(S(=O)(=O)N4CCSCC4)c3)o2)cc1`, 1100 s. As to `CSc1cccc(NC(=O)C2CCCN(c3cnc4nc(C)c(C)nc4c3)C2)c1` (stereo not given), the RP-LC retention time was 807 s.

Compound `CCOC(=O)Cc1ccc(NC(=O)N2CCC3(CC2)Nc2cc(F)ccc2-n2cccc23)cc1` had an RP-LC retention time of 1000 s.

`Cc1nc2ccccc2c(=O)n1Cc1noc(-c2ccccc2Br)n1` yielded an RP-LC retention time of 871 s. Regarding `COC(=O)c1cccc(N2C=C(C(=O)N3CCCC3)S(=O)(=O)c3ccc(F)cc32)c1`, the RP-LC retention time amounted to 788 s. `CCc1ccc(NC(=O)C2CCN(c3cncnc3N3CCOCC3)CC2)cc1` returned an RP-LC retention time of 675 s.

The compound `CCOCCOC1CCN(C(=O)c2ccco2)CC1` returned an RP-LC retention time of 667 s. The figure for `O=C(CSc1nnc(CNC(=O)c2ccc(F)cc2)o1)NCc1ccco1` is 647 s. The figure for `Cc1ccc(S(=O)(=O)N2C(=O)CCC2C(=O)NC2CCCCCC2)cc1C` (stereo not given) is 1010 s. The result for `CCCn1cnc2cc(CNC(=O)c3cc4cc(Cl)ccc4[nH]3)ccc21` reads 720 s; that for `O=C(NC1CC1)c1ccc(OCC2CCCN(C(=O)c3ccoc3)C2)cc1` (stereo not given), 712 s; that for `COC(=O)C1=C(NC(=O)c2ccc(N3C(=O)CCC3=O)cc2)CCS1`, 739 s.

(Values after the METLIN SMRT retention time set (Domingo-Almenara et al. 2019).)
